Tests used:
[1] = Histopathological examination of liver and kidney (H&E); assay type: in vivo, mice
Description: (§1) We randomly divided 50 mice into groups 5 groups (10 mice in each group): normal control (I) (mice injected intraperitoneally with the same volume of solvent for 14 consecutive days); group II, a group of normal mice treated with compound 4 (mice injected intraperitoneally with newly produced compound 4 at a dose of 6 mg/kg per day for 14 days); group III, solid tumor group (mice were implanted with solid tumor); group IV, group were treated with 5-FU (after 10 days of tumor implantation, mice were treated with 6 mg/kg only once); and group V, solid tumor group were treated with compound 4 (after 10 days of tumor implantation, mice were treated with 6 mg/kg only once). after one day of the previous treatment, 10 mice from each group were sacrificed and tumor weight, tumor volume (length and width of solid femoral tumor), blood and liver samples were obtained from each group. A portion of each blood sample taken was used for complete blood count (CBC) and the rest was centrifuged to obtain the serum. Serum was used for biochemical parameter estimation. The livers were rapidly dissected, washed with isotonic saline, and dried. The experiment design is summarized in Supplementary Figure S3.
Complete blood counts (CBCs) were counted using an AbbottCELLDYN®1800 Automated Hematology Analyzer (Abbott Park, IL, USA) equipped with an off-the-shelf kit (Abbott Laboratories, Abbott Park, IL, USA). For microscopic histopathological examination, tumor and kidney slices were maintained in 10% formalin, dehydrated with graduated alcohol, embedded in paraffin sections, H&E stained, and hematoxylin stained.
Specimens from mice liver cells were fixed in 10% formalin saline. Then, the samples were dehydrated with ascending series of ethanol and embedded in paraffin. A […] thick section was stained with hematoxylin and eosin and examined under a light microscope.

[2] = test system: THLE-2 normal liver cells; assay: MTT assay, normal liver cells; assay type: cell-based; conditions: Homo sapiens, THLE-2, mean ± SE, n = 3
[3] = test system: P53, PUMA, Caspase 3, 8, 9, Bcl-2, PI3K, AKT genes in HepG2 cells; assay: Gene expression (RT-PCR) of apoptosis-related genes; assay type: cell-based, human; conditions: HepG2, IC50 concentration, 48 h, control = 1
Description: The target genes of P53, PUMA, Caspases 3, 8, and 9, Bcl-2, PI3K, and AKT were chosen according to the interactive functional association network of the tested protein set using String bioinformatics database for analysis as shown in Supplementary Figure S1. HepG2 cells were treated for 48 h at 37 °C with the IC50 value of the compound 4 and followed by real-time PCR analysis for control and treated cells of the following genes, P53, PUMA, BCL2, CASP3, CASP8, CASP9, PI3k, and AKT, using the specific primers mentioned in Supplementary Table S3 compared to the control cells. Relative gene expression was calculated utilizing the ΔΔCT equation with normalization to the housekeeping beta-actin gene. Results were shown as a fold change in the mentioned gene expression in the treated versus control cells.
HepG2 cells were treated for 48 h at 37 °C with the IC50 value of the compound 4 and were collected for real-time PCR analysis with the perfect primer pairs (Supplementary, Table 1) of the following eight genes (P53, PUMA, BCL2, CASP3, CASP8, CASP9, PI3k and AKT) compared to the control cells, and for analysis first total RNA was extracted using RNeasy Mini Kit (Qiagen) following the manufacturer protocol of the kits than RNA was assessed for both the quality and quantity of RNA using NanoDrop ND-1000 spec-trophotometer at the absorbance ratio 260/280 nm [NanoDrop Tech., Inc. DE, USA]. Also, Whole RNA quality was examined by 1% agarose gel electrophoresis and afterward cDNA was obtained from one μg RNA using I-Script cDNA synthesis kit (BioRad). qRT-PCR were executed utilizing 10 ng of cDNA and Applied Biosystems Sybr Green master […]
conditions were 5 min [95 ◦C], followed by 45 cycles for 15 s [95 ◦C], for 60 s [58, 60, 62 ◦C] and for 1 min [72 ◦C] using applied Biosystems Step-One qRT-PCR (USA). Relative genes expression was finally calculated utilizing the ΔΔCT equation with normalization to that of the housekeeping beta-actin gene. Results were shown as fold change in gene expres-sion in the treated cells versus that of the control. […]

[4] = Hepatic oxidant and antioxidant assessment; assay type: in vivo; conditions: liver homogenate, SEC-bearing mice, 6 mg/kg BW
Description: as §1
In liver tissue homogenate, a standard commercial kit (BioDiagnostic, Cairo, Egypt) was used to evaluate oxidation and antioxidant parameters according to its methodology, as previously published in Nafie et al., 2020 [57]. Lipid peroxidation (MDA) and nitric oxide (NO) are oxidants, while reduced glutathione (GSH), catalase (CAT), and superoxide dismutase (SOD) are antioxidants.

[5] = test system: Solid Ehrlich carcinoma (SEC); assay: In vivo anti-tumor assay: tumor volume and tumor inhibition ratio; conditions: SEC-bearing mice, 6 mg/kg; SEC control 5802 mm^3
Description: We used adult Swiss albino female mice with average body weight 18–23 g obtained from Theodor Bilharzia Research Institute in Giza, Egypt. Mice were kept under constant conditions of a 12 h light–dark cycle at temperatures below controlled moisture conditions (22 ± 2 °C) with standard laboratory mouse nutrition and water entries. Approval for the experimental protocol was provided from the ethical committee of Suez Canal University for this experimental protocol (approval number REC-06-2020, Faculty of Science, Suez Canal University). Mice were adapted for approximately 10 days before use in the experiment.
Solid Ehrlich carcinoma (SEC) was obtained from the National Cancer Institute (University of Cairo, Egypt). The tumor cell line proliferated in mice after serial implantation of the peritoneal cavity (I.P.) in 0.2 mL of physiological saline containing 1 × 10^6 viable cells for 24 h. […]
We measured the length and width of the tumor using a digital Vernier clipper (Tricle Brand, Shanghai, China), then we calculate the tumor volume using the formula: V = (L × W × W)/2, where V is tumor volume, W is tumor width, and L is tumor length, and calculated the tumor inhibition ratio% using the formula: TIR %= (C − T)/C × 100, where T represents mean tumor volume of treated group and C represents mean tumor volume of the control group.

O=C1NC(=S)N(c2ccc(O)cc2)/C1=C/c1cccs1 [Compound 4, (E)-1-(4-Hydroxyphenyl)-5-(thiophen-2-ylmethylene)-2-thioxoimidazolidin-4-one]
kidney histopathology ([1]; SEC-bearing mice treated): almost normal, intact renal corpuscles and tubules
liver histopathology ([1]; SEC-bearing mice treated): liver lobules looking normal
liver histopathology ([1]; normal mice treated): normal-looking liver lobules; some hepatocytes showed a hydropic degeneration and a balloon degeneration
IC50 [2]: 56.6 ± 1.5 µM
AKT gene expression, fold change ([3]; reduced): 0.38 fold
BCL-2 gene expression, fold change ([3]; reduced): 0.25 fold
PI3K gene expression, fold change ([3]; reduced): 0.497 fold
Caspase 3 gene expression, fold change ([3]; upregulation): 10.71 fold
Caspase 8 gene expression, fold change ([3]; upregulation): 1.98 fold
Caspase 9 gene expression, fold change ([3]; upregulation): 7.14 fold
P53 gene expression, fold change ([3]; upregulation): 7.61 fold
PUMA gene expression, fold change ([3]; upregulation): 2.31 fold
GSH (antioxidant) ([4]; SEC control 18.23): 39.27 mg/g Tissue
CAT (antioxidant) ([4]; SEC control 21.69): 46.9 U/g Tissue
SOD (antioxidant) ([4]; SEC control 27.36): 48.69 U/g Tissue
NO (oxidative stress) ([4]; SEC control 79.69): 42.38 U/g Tissue
MDA (oxidative stress) ([4]; SEC control 98.39, n = 6): 73.36 nmol/g Tissue
tumor volume on the final day [5]: 2766 mm^3
